Reference: patent US20060292151A1, “L-SIGN polymorphisms and methods involving use of same” (priority 2004, published 2006)

System: L-SIGN alleles: L-SIGN-4, -5, -7 and -9
Assay: Inhibition of L-SIGN-mediated trans-infection of Hep3B cells by HCVpp
Format: cell-based, human
Conditions: mannan 20 μg/ml
Procedure: FIG. 9. Inhibition of trans-infection with agents to the CRD of L-SIGN. HeLa or HeLa-SIGN transfectants stably expressing the indicated polymorphic forms of L-SIGN were incubated with mannan (20 μg/ml), anti-CRD mAbs (120604 and 120612, 10 μg/ml), or IgG2a isotype-control IgG (10 μg/ml) prior to addition to HCVpp. Cells were incubated an additional 2 h, washed and combined with Hep3B cells. Cultures were maintained for 48 h prior to lysis and measurement of luciferase activity. The data represent the percent of trans-infection relative to that observed in the absence of inhibitor. The values were calculated as (net RLU in the presence of inhibitor)/(net RLU in the absence of inhibitor)×100, where net RLU represents the difference in RLU values observed between transfected and parental HeLa cells. Negative values are omitted for clarity. The data represent the average of 3 independent measurements. […]
Parental HeLa cells and HeLa-SIGN transfectants (2×10^4) were incubated with 200 μl of viral supernatant for 2 h at 37° C. […] Luciferase activity was measured in cell lysates using the Luciferase Assay System (Promega, Madison, Wis.) according to the manufacturer's instructions. […] Data were analyzed for statistical significance using 2-sided t-tests and a significance level of P<0.05 unless otherwise indicated. […]

L-SIGN alleles: L-SIGN-4, -5, -7 and -9, sequence (Q9H2X3 250-399 limits assumed): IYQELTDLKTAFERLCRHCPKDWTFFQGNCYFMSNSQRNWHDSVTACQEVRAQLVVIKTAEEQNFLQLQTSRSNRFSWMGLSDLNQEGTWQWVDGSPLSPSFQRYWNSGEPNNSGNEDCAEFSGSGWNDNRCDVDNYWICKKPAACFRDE

Substance: mannan
- average level of inhibition of trans-infection across the different isoforms: 77%
- level of trans-infection inhibited (range over L-SIGN-4, -5, -7 and -9) (30 min before HCVpp, Hep3B co-culture 48 h, luciferase): 47-95%
